How the values were obtained:
CCRF-CEM = assay: CellTiterGlo viability assay, initial screening; assay type: cell-based; details: Homo sapiens, 72 h, read-out: IC50 (relative IC50)
Protocol: (§1) In vitro viability assays were performed to assess the effects of compounds on cell viability in 7 selected cell lines over 72 hr using the CellTiterGlo (CTG, Promega-G7573) assay. The tests were performed in duplicates with treatment of compounds at 9 points, 3.16 folds titration in 96 well plates over ˜72 hr. The compound starting concentrations were […]. Cell viability assay using CellTiterGlo in 96-well plate were performed. The compound treatment was 72 hrs, under standard growth conditions, and in duplicate. Compounds were dissolved to 40 mM with thawed […]. Compounds were serially diluted at 3.16 fold in thawed DMSO, and warmed to 37° C. before being dissolved in media (2 μl+200 μl). After compounds were dissolved in media (media was also warmed to 37° C.). Media containing compounds were warmed to 37° C. in incubator and then compounds in media were added to cell plates (50 μl+50 μl), in duplicates. The compounds final concentrations were from […] to 19.9 nM. All compound solubilities were checked and recorded again, then the plates were transferred to CO2 tissue culture incubator immediately and incubated for 3 days. DMSO final concentration is 0.5%.

HL-60 [1] = assay: CellTiterGlo viability assay, initial screening; assay type: cell-based; details: Homo sapiens, HL-60, 72 h, read-out: IC50 (relative IC50)
Protocol: as §1

HepG2 [2] = assay: CellTiterGlo viability assay, initial screening; assay type: cell-based; details: Homo sapiens, HepG2, 72 h, read-out: IC50 (relative IC50)
Protocol: as §1

K562 [3] = assay: CellTiterGlo viability assay, initial screening; assay type: cell-based; details: Homo sapiens, K562, 72 h, read-out: IC50 (relative IC50)
Protocol: as §1

KG-1 [4] = assay: CellTiterGlo viability assay, initial screening; assay type: cell-based; details: Homo sapiens, KG-1, 72 h, read-out: IC50 (relative IC50)
Protocol: as §1

MCF-7 = assay: CellTiterGlo viability assay, initial screening; assay type: cell-based; details: Homo sapiens, MCF7, 72 h, read-out: IC50 (relative IC50)
Protocol: as §1

MOLT-4 = assay: CellTiterGlo viability assay, initial screening; assay type: cell-based; details: Homo sapiens, MOLT-4, 72 h, read-out: IC50 (relative IC50)
Protocol: as §1

[5] = test system: CCRF-CEM (TdT positive CEM); assay: ATP (ViaLight plus) cytotoxicity assay; assay type: cell-based, Human; details: CEM (TdT+ve)
Protocol: (§2) Certain compounds of the invention were subjected to further studies to test the cytotoxic activity of certain compounds of the invention and also to measure their activity against 4 haematological cancer cell lines • TdT positive CEM (Human ALL) • TdT negative K562 (Human CML) • TdT negative H1-60 (Human ANLL) • RL (CRL-2261) non-HD lymphoma • The concentrations of the active metabolite dATP (Cordycepin triphosphate) in these cell lines was also measured. • The cytotoxic activity and the intracellular 3′-dATP concentrations were also studied in the presence of hENT1, Adenosine Kinase (AK) and Adenosine Deaminase pharmacological inhibitors in CEM and RL cancer cell lines. Said inhibitors that mimic known cancer resistance mechanisms. Methods Cell Culture
(§3) HL-60 (ATCC® CCL-240™), K562 (ATCC® CCL-243™), CCRF-CEM (ATCC® CRM-CCL-119™) and RL (ATCC® CRL-2261™) leukaemia cell lines, obtained from the American Type Culture Collection (ATCC), Middlesex. HL-60 and K562 cell lines are deoxynucleotidyl transferase-negative (TdT-ve), whereas CCRF-CEM cell line is TdT+ve.
(§4) HL-60, K562, CCRF-CEM and RL cell lines were cultured in RPMI-1640 medium (Sigma Aldrich, UK), which were supplemented with 10% Fetal Bovine Serum (FBS) (PAA Laboratories), 1% amphotericin B (5.5 ml) and 1% penicillin/streptomycin (5.5 ml) (PAA Laboratories) and grown in flasks at 37° C. incubator with 5% CO2.
(§5) The amount of ATP was used as a measurement of cell number and cell viability. ATP ViaLight™ plus assay kit (Lonza, USA: Product No. LT07-121) to detect ATP in cells treated in luminescence compatible 96 well plates (initial concentration of cells was 1×10^4 cells/well) with cordycepin and ProTides at concentrations of: 0, 0.1, 0.5, 1, 5 and 10 μM, followed by incubation for 72 hours at 37° C. incubator with 5% CO2. For inhibitor studies, 10 μM of NBTI or 1 μM EHNA or A-134974 was added and left for 5 minutes before adding the drugs (see section 5 for inhibitor details).
(§6) After incubation, 50 μl of cell lysis reagent was added to the 96 well plates to release the intracellular ATP, followed by 100 μl of ATP monitoring reagent (AMR). The luminescent values of each well were determined using FLUOstar OPTIMA microplate reader (BMG Labtech) which convert ATP into light by using luciferase enzyme. Therefore, the amount of luminescence produced was directly proportional to the amount of ATP.
(§7) Cell lines were treated in the same way as described above but before treatment with drugs, a number of inhibitors were added: • 1) Nitrobenzylthioinosine (NBTI) (Sigma-Aldrich, St. Louis, Mo., product # N2255) blocks nucleoside transporters • 2) EHNA hydrochloride (Sigma-Aldrich, St. Louis, Mo., product # E114) blocks adenosine deaminase • 3) Adenosine kinase inhibitor A-134974 dihydrochloride hydrate (Sigma-Aldrich, St. Louis, Mo., product # A2846): blocks adenosine kinase
(§8) The dose-response curves of cytotoxicity of the drugs was determined using non-linear regression analysis of percentage cell viability versus concentration and EC50 values were obtained. The intracellular assay was conducted in five replicates for each condition. Intracellular assay was determined using paired t test (two-tailed) analysis of 3′ATP/ATP concentration and p-values were obtained. For all the analysis, Prism Software program (GraphPad Software) was used and Microsoft Powerpoint® 2013 was used to plot the results.

HL-60 (TdT negative) = assay: ATP (ViaLight plus) cytotoxicity assay; assay type: cell-based, Human; details: Homo sapiens, HL-60, 72 h
Protocol: as §2, §3, §4, §5, §6, §8

K562 (TdT negative) = assay: ATP (ViaLight plus) cytotoxicity assay; assay type: cell-based, Human; details: Homo sapiens, K562, 72 h
Protocol: as §2, §3, §4, §5, §6, §8

RL (CRL-2261) = assay: ATP (ViaLight plus) cytotoxicity assay; assay type: cell-based; details: 72 h, CRL (RL, CRL-2261)
Protocol: as §2, §3, §4, §5, §6, §7, §8

CCRFCEM = assay: Solid tumour and haematological malignancy assay (CellTiterGlo); assay type: cell-based; details: Homo sapiens, CCRF-CEM, 72 h; for IC50: read-out: IC50 (absolute IC50); for Emax: read-out: MI %
Protocol: (§9) In vitro viability assay were performed to assess the effects of compounds on cell viability in selected cell lines over 72 hr using the CellTiterGlo (CTG, Promega-G7573) assay. […] Cell viability assay using CellTiterGlo in 96-well plate were performed. Compound treatment 72 hrs, standard growth conditions, duplicates. Compounds were dissolved to 40 mM with thawed 100%. […] After compounds were dissolved in media, media containing compounds were warmed to 37° C. in incubator and then compounds in media were added to cell plates ([…]) in duplicates. […] All compound solubilities were checked and recorded again, then the plates were transferred to CO2 tissue culture incubator immediately and incubated for 3 days. DMSO final concentration is 0.5%.

HEL92.1.7 = assay: as above; assay type: cell-based; details: Homo sapiens, HEL 92.1.7, 72 h; for IC50: read-out: IC50 (absolute IC50); for Emax: read-out: MI %
Protocol: as §9

HL-60 [6] = assay: as above; assay type: cell-based; details: Homo sapiens, HL-60, 72 h; for IC50: read-out: IC50 (absolute IC50); for Emax: read-out: MI %
Protocol: as §9

HT29 = assay: as above; assay type: cell-based; details: Homo sapiens, HT-29, 72 h; for IC50: read-out: IC50 (absolute IC50); for Emax: read-out: MI %
Protocol: as §9

HepG2 [7] = assay: as above; assay type: cell-based; details: Homo sapiens, HepG2, 72 h; for IC50: read-out: IC50 (absolute IC50); for Emax: read-out: MI %
Protocol: as §9

K562 [8] = assay: as above; assay type: cell-based; details: Homo sapiens, K562, 72 h; for IC50: read-out: IC50 (absolute IC50); for Emax: read-out: MI %
Protocol: as §9

KG-1 [9] = assay: as above; assay type: cell-based; details: Homo sapiens, KG-1, 72 h; for IC50: read-out: IC50 (absolute IC50); for Emax: read-out: MI %
Protocol: as §9

MCF7 = assay: as above; assay type: cell-based; details: Homo sapiens, MCF7, 72 h; for IC50: read-out: IC50 (absolute IC50); for Emax: read-out: MI %
Protocol: as §9

MiaPaCa-2 = assay: as above; assay type: cell-based; details: Homo sapiens, MIA PaCa-2, 72 h; for IC50: read-out: IC50 (absolute IC50); for Emax: read-out: MI %
Protocol: as §9

[10] = test system: leukaemic stem cell (LSC) compartment within the KG1a cell line; assay: Immunophenotypic identification of the leukaemic stem cell compartment; assay type: cell-based; details: 72 h; for LSC targeting compared with the parent nucleoside: for compound A at 1 mM and above
Protocol: KG1a cells were cultured for 72 h in the presence of a wide range of concentrations of each compound assayed. Cells were then harvested and labelled with a cocktail of anti-lineage antibodies (PE-cy7), anti-CD34 (FITC), anti-CD38 (PE) and anti-CD123 (PERCP cy5). The sub-population expressing a LSC phenotype were subsequently identified and were expressed as a percentage of all viable cells left in the culture. The percentages of stem cells remaining were then plotted on a dose-response graph and the effects of the compounds were compared with each other, and with the parent nucleoside.
The data obtained in these experiments were evaluated using one way ANOVA. All data was confirmed as Gaussian or a Gaussian approximation using the omnibus K2 test. LD50 values were calculated from the non-linear regression and line of best-fit analysis of the sigmoidal dose-response curves. All statistical analyses were performed using Graphpad Prism 6.0 software (Graphpad Software Inc., San Diego, Calif.).

| Compound | IC50 (CCRFCEM) | Emax (CCRFCEM) | IC50 (HEL92.1.7) | Emax (HEL92.1.7) | IC50 (HL-60 [6]) | Emax (HL-60 [6]) | IC50 (HT29) | Emax (HT29) | IC50 (HepG2 [7]) | Emax (HepG2 [7]) | IC50 (K562 [8]) | Emax (K562 [8]) | IC50 (KG-1 [9]) | Emax (KG-1 [9]) | IC50 (MCF7) | Emax (MCF7) | IC50 (MiaPaCa-2) | Emax (MiaPaCa-2) | LSC targeting compared with the parent nucleoside [10] | also measured |
| --- | --- | --- | --- | --- | --- | --- | --- | --- | --- | --- | --- | --- | --- | --- | --- | --- | --- | --- | --- | --- |
| CCCCCOC(=O)[C@H](CC(C)C)NP(=O)(OC[C@@H]1C[C@@H](O)[C@H](n2cnc3c(N)ncnc32)O1)Oc1cccc2ccccc12 (mixture of isomers) [D, (2S)-pentyl 2-(((((2S,4R,5R)-5-(6-amino-9H-purin-9-yl)-4-hydroxytetrahydrofuran-2-yl)methoxy)(naphthalen-1-yloxy)phosphoryl)amino)-4-methylpentanoate] | – | – | – | – | – | – | – | – | – | – | – | – | – | – | – | – | – | – | – | IC50 (CCRF-CEM): 5 to 15 µM; IC50 (HL-60 [1]): 5 to 15 µM; IC50 (HepG2 [2]): 5 to 15 µM; IC50 (K562 [3]): 5 to 15 µM; IC50 (KG-1 [4]): 5 to 15 µM; IC50 (MCF-7): 0.1 to 5 µM; IC50 (MOLT-4): 0.1 to 5 µM; (FD) fold difference compared to Cordycepin = Cordycepin IC50/ProTide IC50 [5]: (3); IC50 ([5]; Homo sapiens, CCRF-CEM, 72 h, 72 hours): 6.1 µM; IC50 (HL-60 (TdT negative)): 5.4 µM; IC50 (K562 (TdT negative)): 4.2 µM; IC50 (RL (CRL-2261)): 4.8 µM |
| C[C@H](NP(=O)(OC[C@@H]1C[C@@H](O)[C@H](n2cnc3c(N)nc(F)nc32)O1)Oc1ccccc1)C(=O)OCc1ccccc1 (mixture of isomers) [P, (2S)-benzyl 2-(((((2S,4R,5R)-5-(6-amino-2-fluoro-9H-purin-9-yl)-4-hydroxytetrahydrofuran-2-yl)methoxy)(phenoxy)phosphoryl)amino)propanoate] | 0.1 to 5 µM | 99% | 0.1 to 5 µM | 99% | 0.1 to 5 µM | 100% | 5 to 15 µM | 87% | 5 to 15 µM | 74% | 0.1 to 5 µM | 97% | 0.1 to 5 µM | 97% | 0.1 to 5 µM | 95% | 0.1 to 5 µM | 98% | significantly improved when compared with the parental nucleoside | – |
| C[C@H](NP(=O)(OC[C@@H]1C[C@H](O)[C@H](n2cnc3c(N)nc(F)nc32)O1)Oc1cccc2ccccc12)C(=O)OCc1ccccc1 (stereo partly drawn) [Compound O, 2-Fluoro-3′-deoxyadenosine-5′-O-[1-naphthyl(benzyloxy-L-alaninyl)] phosphate] | 0.1 to 5 µM | 99% | 0.1 to 5 µM | 100% | 0.1 to 5 µM | 101% | 15 to 100 µM | 84% | 5 to 15 µM | 83% | 0.1 to 5 µM | 99% | 5 to 15 µM | 99% | 0.1 to 5 µM | 95% | 0.1 to 5 µM | 100% | not significantly different to 2-F-Cordycepin | reduction of LSCs as a proportion of the cancer cells in culture (ability to target LSCs) ([10]; Lin−/CD34+/CD38−/CD123+): able to bring about a reduction in the proportion of LSCs |
| CCCCCOC(=O)[C@H](CC(C)C)NP(=O)(OC[C@@H]1C[C@H](O)[C@H](n2cnc3c(N)nc(F)nc32)O1)Oc1cccc2ccccc12 (stereo partly drawn) [Compound Q, 2-Fluoro-3′-deoxyadenosine-5′-O-[1-naphthyl(1-pentyloxy-L-leucinyl)] phosphate] | 0.1 to 5 µM | 101% | 0.1 to 5 µM | 99% | 0.1 to 5 µM | 99% | 15 to 100 µM | 88% | 0.1 to 5 µM | 94% | 0.1 to 5 µM | 100% | 5 to 15 µM | 103% | 0.1 to 5 µM | 99% | 0.1 to 5 µM | 100% | significantly improved when compared with the parental nucleoside | – |

From patent publication US10570168B2, “2′ and/or 5′ amino-acid ester phosphoramidate 3′-deoxy adenosine derivatives as anti- cancer compounds” (NuCana plc, priority 2014, dated 2020)
